{"source": "patent US8414989B2", "about": "“Cyclodextrin compositions, articles, and methods” (Cellresin Technologies, LLC, priority 2011, dated 2013)", "key": {"[1]": {"assay": "Example 2: headspace analysis of 1-butene/c/α-CD powder (GC-FID)", "format": "physicochemical", "conditions": "100 mg 1-butene/c/α-CD powder, 250 mL bottle, no water, about 1 hour", "protocol": "1-butene/c/α-CD was analyzed by adding 100 mg of the collected and dried precipitate to a 250 mL glass bottle equipped with a septum cap, taking care to ensure that no powder adheres to the walls of the bottle. After about 1 hour, 250 μL of headspace gas was removed from the bottle using a six port, two-position gas sampling valve (Valco #EC6W) interfaced directly to a gas chromatograph (GC; Hewlett Packard 5890) using a RTx-5 GC column, 30 m×0.25 mm I.D., 0.25 μm film (obtained from Restek, Inc., of Bellefonte, Pa.) and equipped with flame ionization detector (FID). […] Then 3 mL of water was injected into the bottle through the septum, and the bottle is placed on a mechanical shaker and mixed vigorously for about 1 hour. After the shaking, 250 μL of the headspace gas is removed and added to an empty 250 mL bottle equipped with a septum cap, wherein the interior of the bottle was purged with nitrogen gas. The headspace concentration of 1-butene was quantified in the second bottle using gas chromatography by removing 250 μL, of gas from the 250 mL bottle using a six port, two-position gas sampling valve (Valco #EC6W) interfaced directly to a GC column having FID detector previously calibrated with a 6-point 1-butene (99.0% pure, Scott Specialty Gases, Plumsteadville, Pa.) calibration curve."}, "[2]": {"assay": "Example 2: 1-butene headspace release from UV-cured coating on polyethylene extrusion coated paper", "format": "physicochemical", "conditions": "cured 1-butene/c/α-CD coated 5 cm x 10 cm rectangle, 250 mL bottle; for Headspace concentration of 1-butene, Ave.: 50 μL water, average of six", "protocol": "A 20 mL bottle was charged with 9.8 g of UV Coating VP 10169/60 MF-2NE (obtained from Verga GmbH of Aschau am Inn, Germany) and 0.2 g of 1-butene/c/α-CD. The bottle was firmly capped and the components were mixed by shaking the bottle by hand until uniformly dispersed.\nAbout 3 mL of the mixture was removed with a dropper dispensed on a glass pan. A rubber ink roller was used to spread the mixture on the glass and roller. Next, the roller was used to coat the mixture on the coated side of a 20 cm by 20 cm section of polyethylene extrusion coated paper (REYNOLDS® Freezer Paper, 90 microns total thickness). The roller delivered a coating nominal thickness of 0.3 microns. A razor blade was used to cut a 5 cm by 10 cm rectangle from the coated sheet. Then the coated cut rectangle was passed by hand about 10 cm beneath a medium pressure mercury arc lamp operating at 200 watts per inch (79 watts per cm). After 1.5 seconds exposure to the lamp, the cured rectangle was removed. The cured rectangle was allowed to sit on a laboratory bench overnight coating side down.\nSix replicate coated rectangles were made in this fashion. Each rectangle was placed in a 250 mL serum bottle. Then the six bottles were sealed with TEFLON® faced silicone septa. The 1-butene headspace concentration was quantified using gas chromatography by removing 250 μL of gas from the sample bottle using a six port, two-position gas sampling valve interfaced directly to the GC column having FID detector.\nThen 50 μL of deionized water was injected into each bottle. […] The headspace of each of the six sealed bottles was analyzed at 0.5, 1, 2, 4, 8, 24, and 96 hours after the injection of water wherein about 3 mL of the 250 mL bottle headspace volume was removed for each analysis. In each sampling, the amount of 1-butene released from the UV coated rectangles was quantified by gas chromatography against a 6-point 1-butene calibration curve having a 0.998 correlation coefficient. Table 1 and FIG. 1 illustrate the average of six replicate samples of 1-butene headspace concentration and standard deviation."}}, "data": [{"smiles": "C=CCC", "note": "[1-Butene, 1-butene]", "values": [{"measurement": "Headspace concentration of 1-butene", "setting": "[1]", "result": "No measurable concentration"}, {"measurement": "Headspace concentration of 1-butene, Ave.", "setting": "[2]; 0.5 hours", "result": "0.46 ppm (v/v)"}, {"measurement": "Headspace concentration of 1-butene, Ave.", "setting": "[2]; 1 hour", "result": "1.5 ppm (v/v)"}, {"measurement": "Headspace concentration of 1-butene, Ave.", "setting": "[2]; 2 hours", "result": "3.0 ppm (v/v)"}, {"measurement": "Headspace concentration of 1-butene, Ave.", "setting": "[2]; 4 hours", "result": "4.9 ppm (v/v)"}, {"measurement": "Headspace concentration of 1-butene, Ave.", "setting": "[2]; 8 hours", "result": "6.0 ppm (v/v)"}, {"measurement": "Headspace concentration of 1-butene, Ave.", "setting": "[2]; 24 hours", "result": "7.6 ppm (v/v)"}, {"measurement": "Headspace concentration of 1-butene, Ave.", "setting": "[2]; 96 hours", "result": "7.8 ppm (v/v)"}, {"measurement": "Headspace concentration of 1-butene", "setting": "[2]; before water injection", "result": "No measurable concentration"}]}]}
